Experimental data: ChEMBL document CHEMBL1201862, “PubChem BioAssay data set” (2004)
Activity calls are given as the source filed them.

Legend:
cells [1] = assay type: functional, cell-based
Streptococcus = assay: GAS UMAA2166 growth inhibition – luminescence, BacTiterGlo, counter-screen for streptokinase expression inhibitor project, dose response (AID 1915); assay type: functional, organism-based;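 note: potency for reduction of bacterial viability or growth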
[2] = HepG2 cell cytotoxicity, dose response, cytotoxicity control for non-replicating M. tuberculosis project (AID 489018); assay type: functional; settings: Mycobacterium tuberculosis
Beta-galactosidase = Beta-galactosidase (Escherichia coli, UniProt Q8VNN2); assay: detection-enzyme interference by beta-gal modulators – biochemical, E. coli enzyme, set 3, artefact control for CCR6 antagonist project, dose response (AID 504712); assay type: functional
Beta-galactosidase, sequence (Q8VNN2 whole entry): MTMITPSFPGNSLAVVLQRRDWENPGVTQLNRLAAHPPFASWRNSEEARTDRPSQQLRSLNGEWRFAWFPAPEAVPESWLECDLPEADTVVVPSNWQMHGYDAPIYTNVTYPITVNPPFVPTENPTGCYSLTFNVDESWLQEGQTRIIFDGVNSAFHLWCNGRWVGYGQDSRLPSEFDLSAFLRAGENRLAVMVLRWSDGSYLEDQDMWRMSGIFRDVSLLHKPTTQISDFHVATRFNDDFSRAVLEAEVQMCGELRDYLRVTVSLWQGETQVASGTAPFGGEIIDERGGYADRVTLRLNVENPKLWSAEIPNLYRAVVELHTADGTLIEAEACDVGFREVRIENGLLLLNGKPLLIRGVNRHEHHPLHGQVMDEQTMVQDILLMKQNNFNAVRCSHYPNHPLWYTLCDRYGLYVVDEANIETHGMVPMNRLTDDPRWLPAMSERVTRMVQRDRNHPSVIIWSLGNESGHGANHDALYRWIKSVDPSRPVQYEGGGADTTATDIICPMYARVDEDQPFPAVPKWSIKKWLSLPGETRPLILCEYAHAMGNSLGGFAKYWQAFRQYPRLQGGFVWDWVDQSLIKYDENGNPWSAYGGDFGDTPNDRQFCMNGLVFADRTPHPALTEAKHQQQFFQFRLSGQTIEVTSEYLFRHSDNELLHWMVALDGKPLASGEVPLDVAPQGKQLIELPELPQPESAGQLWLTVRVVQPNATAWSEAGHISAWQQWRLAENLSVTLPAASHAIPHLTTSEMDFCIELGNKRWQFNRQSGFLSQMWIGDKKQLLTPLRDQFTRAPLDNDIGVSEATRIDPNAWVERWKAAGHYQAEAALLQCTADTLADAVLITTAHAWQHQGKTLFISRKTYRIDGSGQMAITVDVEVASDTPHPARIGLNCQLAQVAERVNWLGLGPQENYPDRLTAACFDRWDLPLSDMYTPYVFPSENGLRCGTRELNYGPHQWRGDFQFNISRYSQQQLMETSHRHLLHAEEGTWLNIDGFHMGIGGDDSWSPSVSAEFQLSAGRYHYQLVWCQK

HEK293 [3] = assay: cells; assay type: functional, cell-based; settings: Homo sapiens
cells [4] = assay type: functional, cell-based; remark: listed apart in the source
HEK293 [5] = assay: cells; assay type: functional, cell-based; settings: Homo sapiens; remark: listed apart in the source
[6] = Trypanosoma cruzi growth suppression in host cells – NIH3T3 host cells, beta-gal luminescence, confirmation (AID 2044); assay type: functional, cell-based;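 note: intracellular parasites grown in NIH/3T3 mouse fibroblasts as host cells; luminescent beta-galactosidase reporter signal from transgenic T. cruzi replicating inside host cells; inhibitors lower the luminescence signal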
INS1 [7] = assay: INS-1E survival protection against cytokine death – cell-based, luminescence, retest, dose response (AID 449756); assay type: functional; settings: Rattus norvegicus;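 note: cell death triggered by IL-1 beta plus TNF-alpha plus IFN-gamma mixture; protective hits raise ATP signal compared with cytokine alone wells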
HEK293 [8] = assay: cells; assay type: functional, cell-based; settings: Homo sapiens; remark: listed apart in the source
[9] = target: C-C chemokine receptor type 6 (Homo sapiens, UniProt P51684); assay: antagonism of CCR6 beta-arrestin recruitment – cell-based, luminescent beta-arrestin readout, dose response (AID 504728); assay type: functional
C-C chemokine receptor type 6, sequence (P51684 whole entry): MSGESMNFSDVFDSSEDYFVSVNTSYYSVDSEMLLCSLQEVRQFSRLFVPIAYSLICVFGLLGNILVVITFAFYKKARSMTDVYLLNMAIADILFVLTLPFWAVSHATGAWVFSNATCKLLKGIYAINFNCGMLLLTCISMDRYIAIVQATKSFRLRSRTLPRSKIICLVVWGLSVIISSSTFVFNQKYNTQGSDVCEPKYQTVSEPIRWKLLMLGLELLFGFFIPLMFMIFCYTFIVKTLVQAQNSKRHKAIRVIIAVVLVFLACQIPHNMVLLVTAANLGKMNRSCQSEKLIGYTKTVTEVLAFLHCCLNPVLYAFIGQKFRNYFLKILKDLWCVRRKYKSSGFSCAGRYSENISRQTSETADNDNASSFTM

[10] = THP-1 cell cytotoxicity, dose response, cytotoxicity control for non-replicating M. tuberculosis project (AID 489025); assay type: functional
Streptokinase A = target: T1, Streptokinase A (Streptococcus pyogenes serotype M1, UniProt P10520); assay: viability-normalized secreted streptokinase activity reduction – plasminogen activation absorbance, OD405, dose response (AID 1914); assay type: functional, Streptococcus pyogenes M1 GAS;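 note: secreted streptokinase activity via plasminogen activation per viability signal from cell pellet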
T1 sequence (P10520 whole entry): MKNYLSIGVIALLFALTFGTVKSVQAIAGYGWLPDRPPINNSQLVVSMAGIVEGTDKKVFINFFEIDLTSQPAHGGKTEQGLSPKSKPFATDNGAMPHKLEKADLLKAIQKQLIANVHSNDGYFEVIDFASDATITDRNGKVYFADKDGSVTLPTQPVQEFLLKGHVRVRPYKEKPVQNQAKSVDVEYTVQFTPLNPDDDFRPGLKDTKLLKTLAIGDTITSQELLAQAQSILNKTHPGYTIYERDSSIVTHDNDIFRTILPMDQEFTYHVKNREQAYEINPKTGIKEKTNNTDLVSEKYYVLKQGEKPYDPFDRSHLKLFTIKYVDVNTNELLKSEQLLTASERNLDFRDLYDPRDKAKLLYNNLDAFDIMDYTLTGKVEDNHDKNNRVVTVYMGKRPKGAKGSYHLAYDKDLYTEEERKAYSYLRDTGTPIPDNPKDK

[11] = target: Nucleotide-binding oligomerization domain-containing protein 2 (Homo sapiens, UniProt Q9HC29); assay: inhibition of NOD2-driven NF-kB reporter – cell-based, luminescence, uHTS, HEK293 (AID 1566); assay type: functional
Nucleotide-binding oligomerization domain-containing protein 2, sequence (Q9HC29 whole entry, the tested form may be a part): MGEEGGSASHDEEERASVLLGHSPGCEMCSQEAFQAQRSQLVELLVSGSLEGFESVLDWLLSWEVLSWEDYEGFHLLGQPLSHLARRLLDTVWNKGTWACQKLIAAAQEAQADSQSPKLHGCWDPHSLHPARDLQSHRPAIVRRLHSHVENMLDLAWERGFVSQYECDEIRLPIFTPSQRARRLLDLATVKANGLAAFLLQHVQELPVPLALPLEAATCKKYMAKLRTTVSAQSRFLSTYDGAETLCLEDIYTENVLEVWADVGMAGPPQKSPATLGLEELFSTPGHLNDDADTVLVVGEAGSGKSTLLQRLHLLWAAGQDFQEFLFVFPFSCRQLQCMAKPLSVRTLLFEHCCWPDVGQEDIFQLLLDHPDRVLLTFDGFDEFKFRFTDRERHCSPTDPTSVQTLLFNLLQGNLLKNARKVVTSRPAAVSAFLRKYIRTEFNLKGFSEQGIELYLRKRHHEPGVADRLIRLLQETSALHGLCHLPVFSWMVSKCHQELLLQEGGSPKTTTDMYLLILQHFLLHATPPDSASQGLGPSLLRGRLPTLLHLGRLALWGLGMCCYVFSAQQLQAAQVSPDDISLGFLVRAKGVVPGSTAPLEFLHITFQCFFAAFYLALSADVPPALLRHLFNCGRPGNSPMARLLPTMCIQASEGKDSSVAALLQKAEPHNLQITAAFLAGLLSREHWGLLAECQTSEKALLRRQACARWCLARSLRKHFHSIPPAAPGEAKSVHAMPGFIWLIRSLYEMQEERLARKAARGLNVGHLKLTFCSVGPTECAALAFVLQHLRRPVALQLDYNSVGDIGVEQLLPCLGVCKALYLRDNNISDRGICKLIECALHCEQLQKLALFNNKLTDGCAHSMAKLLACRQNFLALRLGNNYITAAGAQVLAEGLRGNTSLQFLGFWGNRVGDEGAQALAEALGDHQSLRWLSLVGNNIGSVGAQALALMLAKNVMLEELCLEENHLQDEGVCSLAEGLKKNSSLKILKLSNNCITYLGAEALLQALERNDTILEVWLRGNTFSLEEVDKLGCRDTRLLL

HEK293 [12] = assay: NOD2 signaling inhibitors in MDP-stimulated cells, cell-based, uHTS, luminescence (AID 2001); assay type: functional; settings: Homo sapiens
Nonstructural protein 1 = Nonstructural protein 1 (Influenza A virus, UniProt Q194T2); assay type: functional, Influenza A virus (A/California/07/2009(H1N1))
Nonstructural protein 1, sequence (Q194T2 whole entry): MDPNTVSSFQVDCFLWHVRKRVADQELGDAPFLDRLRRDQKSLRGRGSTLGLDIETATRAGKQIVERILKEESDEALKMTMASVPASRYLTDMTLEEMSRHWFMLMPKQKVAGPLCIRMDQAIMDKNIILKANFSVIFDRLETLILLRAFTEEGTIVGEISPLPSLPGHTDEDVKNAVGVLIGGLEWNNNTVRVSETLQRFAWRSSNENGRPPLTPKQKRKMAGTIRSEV

[13] = Vero E6 cell cytotoxicity, dose response, cytotoxicity control for non-replicating M. tuberculosis project, secondary assay (AID 492998); assay type: functional, VeroE6; settings: Vero C1008
A-375 = assay: MITF: Counter assay: A375 proliferation Measured in Cell-Based System Using Plate Reader - 2084-03_Inhibitor_Dose_DryPowder_Activity. [Related pubchem assays (depositor defined):AID488944]; assay type: functional; settings: Homo sapiens
[14] = NIH3T3 cell viability loss – ATP luminescence, mouse fibroblasts, counter-screen, dose response (AID 2010); assay type: functional, cell-based;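 note: cells exposed to compound for about 90 hours before reading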
HEK293 [15] = assay: inhibition of NOD1-driven NF-kB reporter – cell-based, luminescence, uHTS, primary screen (AID 1578); assay type: functional; settings: Homo sapiens
[16] = target: T2, Microphthalmia-associated transcription factor (Homo sapiens, UniProt O75030); assay: reducers of TRPM1 reporter luminescence, concentration series – cell-based, SK-MEL-5, cherry-picked, set 3, MITF inhibitor project, dose response (AID 493073); assay type: functional;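 note: SK-MEL-5 melanoma cells with luciferase driven by the MITF target TRPM1 promoter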
T2 sequence (O75030 whole entry): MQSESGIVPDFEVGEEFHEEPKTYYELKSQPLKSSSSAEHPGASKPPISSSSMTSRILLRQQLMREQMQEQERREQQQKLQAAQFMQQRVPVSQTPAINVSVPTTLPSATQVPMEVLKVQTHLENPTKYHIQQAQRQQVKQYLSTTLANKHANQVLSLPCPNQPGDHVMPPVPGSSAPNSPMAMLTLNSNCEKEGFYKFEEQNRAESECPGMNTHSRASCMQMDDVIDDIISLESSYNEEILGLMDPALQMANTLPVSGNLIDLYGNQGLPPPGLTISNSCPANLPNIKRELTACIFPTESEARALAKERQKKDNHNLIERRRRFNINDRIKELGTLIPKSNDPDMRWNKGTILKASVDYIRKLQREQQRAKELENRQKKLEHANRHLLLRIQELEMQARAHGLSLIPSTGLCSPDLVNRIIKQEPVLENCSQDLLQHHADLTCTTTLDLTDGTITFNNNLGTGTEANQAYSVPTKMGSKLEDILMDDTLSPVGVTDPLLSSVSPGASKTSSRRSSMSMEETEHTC

[17] = test system: Streptococcus sp. 'group A'; assay: Streptococcus pyogenes SK(-)GAS viability under kanamycin – luminescence, BacTiterGlo, confirmation, counter-screen for streptokinase expression inhibitor project, dose response (AID 1900); assay type: functional, organism-based
cells [18] = assay type: functional
[19] = blockers of HIV-1 ZM109 envelope-driven cell-cell fusion – HeLa effector, CEM target cells, luciferase, cherry-pick, dose response (AID 652058); assay type: functional, cell-based;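 note: luciferase signal from HIV-1 Env mediated cell-cell fusion of effector and target cells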
[20] = HIV-1 AD8 envelope cell-cell fusion blockers – cherry-pick, dose response (AID 652062); assay type: functional, cell-based;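 note: luciferase signal from cell-cell fusion driven by HIV-1 clade B AD8 Env; potency is for inhibitors of fusion seen as a drop in luminescence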
[21] = HEK-293T viability loss, compound-treated – cell-based, uHTS hits, cytotoxicity control for B/T-cell NF-kB inhibitor project, dose response (AID 489019); assay type: functional;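 note: IC50 reflects cytotoxicity as loss of cell viability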
Galanin receptor type 3 = target: T3, Galanin receptor type 3 (Homo sapiens, UniProt O60755); assay: Fluorescence-based cell-based primary high throughput dose response assay to identify antagonists of the Galanin Receptor 3 (GalR3).; assay type: functional
T3 sequence (O60755 whole entry): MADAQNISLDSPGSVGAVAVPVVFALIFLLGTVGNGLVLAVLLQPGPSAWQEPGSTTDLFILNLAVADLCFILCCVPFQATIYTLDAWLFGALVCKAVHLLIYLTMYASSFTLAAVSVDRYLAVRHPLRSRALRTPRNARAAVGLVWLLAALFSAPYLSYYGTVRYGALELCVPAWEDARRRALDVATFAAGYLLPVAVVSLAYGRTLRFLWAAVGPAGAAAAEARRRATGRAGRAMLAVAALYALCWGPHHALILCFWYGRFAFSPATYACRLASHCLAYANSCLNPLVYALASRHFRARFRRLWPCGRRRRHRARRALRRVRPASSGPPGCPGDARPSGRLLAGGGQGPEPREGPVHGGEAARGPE

[22] = non-specific 3'UTR reporter inhibition in Clone20-Shn3RL – cell-based, Renilla luciferase, cherry-picked, counter-screen for Shn3 inhibitor project, dose response (AID 624133); assay type: functional
cells [23] = assay type: functional, cell-based; settings: HEK-CNG
[24] = reduction of Shn3 3'UTR-driven luciferase in osteoblasts – cell-based, Clone20 osteoblasts, firefly luciferase, cherry-picked, dose response (AID 624132); assay type: functional;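 note: firefly luciferase luminescence from reporter carrying the Shn3 3'UTR in osteoblasts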
[25] = loss of viability in HepG2 cells – cell-based, CellTiter-Glo, cherry-picked, cytotoxicity control for Shn3 inhibitor project, dose response (AID 624134); assay type: functional
Jurkat = assay: blockers of NF-kB activation in T cells – Jurkat, luciferase reporter, luminescence, B- and T-cell, dose response (AID 489004); assay type: functional, cell-based; settings: Homo sapiens;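 note: NF-kB luciferase reporter Jurkat cells stimulated with PMA plus ionomycin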
INS1 [26] = assay: INS-1E mitochondrial potential rescue under cytokines – cell-based, JC-1 fluorescence ratio, dry powder, dose response (AID 488931); assay type: functional; settings: Rattus norvegicus

SMILES: O=[N+]([O-])c1cc(Cl)cc(/C=N\Nc2ccccn2)c1O
- EC50 (cells [1]): > 350 µM (not active)
- EC50 (Streptococcus): 7.53 µM (active)
- CC50 [2]: 0.987 µM (active)
- IC50 (Beta-galactosidase): > 66.6 µM (inactive)
- IC50 (HEK293 [3]): > 20 µM (inactive)
- EC50 (cells [4]): 11.8 µM (active)
- IC50 (HEK293 [5]): > 20 µM (inactive)
- EC50 [6]: 0.204 µM (active)
- AC50 (INS1 [7]): 0.964 µM (active)
- IC50 (HEK293 [8]): > 20 µM (inactive)
- IC50 [9]: > 66.6 µM (inactive)
- CC50 [10]: 0.147 µM (active)
- EC50 (Streptokinase A): 11.1 µM (active)
- EC50 [11]: > 20 µM (inactive)
- IC50 (HEK293 [12]): > 20 µM (inactive)
- IC50 (Nonstructural protein 1): 3.89 µM (active)
- CC50 [13]: 1.24 µM (active)
- AC50 (A-375): 40.6 µM (active)
- EC50 [14]: 5.6 µM (active)
- EC50 (HEK293 [15]): 9.12 µM (active)
- AC50 [16]: 4.49 µM (active)
- EC50 [17]: 3.56 µM (active)
- IC50 (cells [18]): 6.12 µM (active)

SMILES: COc1cc(CSc2nnnn2-c2ccc(C)cc2)cc(OC)c1OC
- AC50 [19]: 4.94 µM (active)
- AC50 [20]: 4.54 µM (active)
- IC50 [21]: > 80 µM (inactive)
- IC50 (Galanin receptor type 3): 1.22 µM (active)
- AC50 [22]: 2.16 µM (active)
- EC50 (cells [23]): > 29.9 µM (inactive)
- AC50 (INS1 [7]): 2.98 µM (active)
- AC50 [24]: 1.02 µM (active)
- AC50 [25]: 2.51 µM (active)
- IC50 (Jurkat): > 80 µM (inactive)

SMILES: COc1ccc(S(=O)(=O)N(C)C[C@@H]2Oc3c(NC(=O)c4ccncc4)cccc3C(=O)N([C@@H](C)CO)C[C@H]2C)cc1
- AC50 (INS1 [26]): 32.7 µM (active)
